No end group written: not given here.
Test system: oxytocin secretion
Experiment: Effect of third intraventricular administration of PrRP (19P2-L31) on amount of oxytocin secreted in plasma (radioimmunoassay)
Type: in vivo, Mature male Wistar rats
Method: Mature male Wistar rats (weighing 350 to 380 g at the time of surgery) were anesthetized by intraperitoneal administration of 50 mg/kg pentobarbital, and were fixed in a rat brain stereotactic instrument. The brace bar was lowered 3.3 mm from the intra-oral line. The cranial bone was exposed, and a dental drill was used to perforate the bone in order to implant a guide cannula AG-12 (inside diameter 0.4 mm, outside diameter 0.5 mm, Eicom) into the third ventricle. Anchor screws were embedded in four locations around the cannula. The stainless steel guide cannula AG-12 was inserted to a position at the top of the third ventricle. Position coordinates were AP: +7.1 mm, L: 0.0 mm, and H: +2.0 mm, in accordance with the atlas of Paxinos and Watson (1986). The guide cannula was secured to the cranial bone using instant adhesive, dental cement, and the anchor screws. A stainless steel dummy cannula AD-12 (outside diameter 0.35 mm, Eicom) was inserted into the guide cannula and secured with a cap nut (Eicom). Following surgery, the rats were bred in individual cages.
Animal were given about 1 week to recover after implantation of the guide cannulas, and blood was drawn as the animals were allowed to move freely. Rats which had undergone the aforementioned surgery were anesthetized by intraperitoneal administration of 50 mg/kg pentobarbital. […]

## PrRP (19P2-L31): physiologically active peptide, ligand for G protein-coupled receptors phGR3 (GPR10) and UHR-1; described in Nature 393:272–276 (1998) and WO 97/24436 (SRTHRHSMEIRTPDINPAWYASRGIRPVGRF; ends and bridges not checked; UniProt P81277 23-53, looked up)
rat, 10 nmol to the third ventricle, 5 minutes after administration, FIG. 2
  oxytocin concentration in blood relative to control group: about 2 times
rats, intraventricular administration, result in words
  oxytocin concentration in blood after intraventricular administration: elevated oxytocin concentration in blood

From US7045497B1, “Use of peptide” (Takeda Chemical Industries, Ltd., priority 1998, dated 2006)
